Experimental findings from patent US20240174680A1, “CDK2 INHIBITORS AND METHODS OF USING THE SAME” (Cedilla Therapeutics, Inc., priority 2021, published 2024) are described below.

The target in this assay is CDK2/Cyclin E1 (Homo sapiens, UniProt P24941). Kind of assay: CDK2/Cyclin E1 Caliper LabChip EZ Reader mobility shift assay. On the set-up: purchased Eurofins 14-475. The format is biochemical. The settings on record: read-out: Caliper Assay (CDK2/CCNE1): IC50. In short, it runs like this: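 Mobility-shift kinase assay: compound titrations preincubated 30 min with enzyme and ATP, reaction started with 5-FAM-QSPKKG-CONH2 peptide. Final 2.5 nM CDK2/Cyclin E1, 100 μM ATP, 1.5 μM peptide, HEPES pH 7.5; stopped with EDTA after 100 min. IC50 from four-parameter fit of normalized conversion ratio.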

For the molecule `CNC(=O)[C@@H](NC(=O)[C@@H]1CN(C(=O)c2cnn(Cc3ccccc3)c2)CC12CN(C(=O)C(C)(C)C#N)C2)[C@@H](C)OCc1ccccc1` [I-76A], the IC50 fell in the range of 1000 to 10000 nM.
The result for `COC[C@H]1CCCN(C(=O)[C@@H](NC(=O)[C@@H]2CN(C(=O)c3cncs3)CC23CN(C(=O)C(C)(C)C2CC2)C3)[C@@H](C)OC(C)C2CCC(F)(F)CC2)C1` (stereo partly shown) [I-399] reads ≤ 10 nM; that for `CC1(C)C[C@@H]1C(=O)N1CC2(CN(C(=O)c3cnn(Cc4ccccc4)c3)C[C@@H]2C(=O)Nc2ccc(Cc3ccccc3)cc2)C1` [I-84B], 1000 to 10000 nM.
The result for `CNC(=O)[C@@H](NC(=O)[C@@H]1CN(C(=O)c2cnn(Cc3ccccc3)c2)CC12CN(C(=O)[C@H]1CC1(C)C)C2)[C@@H](C)OC[C@H]1CC[C@H](OC)CC1` [I-403] reads 10 to 100 nM; that for `CNC(=O)[C@@H](NC(=O)[C@H]1CN(C(=O)c2cnn(Cc3ccccc3)c2)CC12CN(C(=O)[C@H]1CC1(C)C)C2)[C@@H](C)OCC(C)C` [I-137B], 1000 to 10000 nM.
`C[C@@H](OCC1CCCCC1)[C@H](NC(=O)[C@@H]1CN(C(=O)c2cnn(Cc3ccccc3)c2)CC12CN(C(=O)[C@H]1CC1(C)C)C2)C(=O)N1CCC(c2nccs2)CC1` [I-445]: the IC50 is ≤ 10 nM.
On to `C[C@@H](OCC1CCC(F)(F)CC1)[C@H](NC(=O)[C@H]1CN(C(=O)c2cnn(Cc3ccc(F)cc3)c2)CC12CN(C(=O)[C@H]1CC1(C)C)C2)C(=O)N1CCC(F)(F)CC1` [I-164B], for which the IC50 was 10 to 100 nM.
The result for `CN(C(=O)[C@H]1CCCN(C(=O)[C@@H]2CN(C(=O)c3cnn(Cc4ccccc4)c3)CC23CN(C(=O)[C@H]2CC2(C)C)C3)C1)C1CCCCC1` [I-179] reads 1000 to 10000 nM.
The result for `CNC(=O)[C@@H](NC(=O)[C@H]1CN(C(=O)c2cnn(CC3CCN(C)CC3)c2)CC12CN(C(=O)[C@H]1CC1(C)C)C2)[C@@H](C)OCc1ccccc1` [I-23B] reads > 10000 nM.
The result for `CNC(=O)[C@@H](NC(=O)[C@@H]1CN(C(=O)c2sc(C)nc2C)CC12CN(C(=O)[C@H]1CC1(C)C)C2)[C@@H](C)OCC1CCCCC1` [I-213A] reads 10 to 100 nM.
Regarding `C[C@@H](OCC1CCCCC1)[C@H](NC(=O)[C@@H]1CN(C(=O)c2cncs2)CC12CN(C(=O)[C@H]1CC1(F)F)C2)C(=O)N1CCCCC1` [I-296], the IC50 lay in the range of 10 to 100 nM.
`CNC(=O)[C@@H](NC(=O)[C@H]1CN(C(=O)c2cnn(Cc3ccccc3)c2)CC12CN(C(=O)CC1(COC)CC1)C2)[C@@H](C)OCc1ccccc1` [I-82B]: the IC50 is > 10000 nM.
Turning to `C[C@@H](OCC1CCCCC1)[C@H](NC(=O)C1CN(C(=O)C2CCC(=O)NC2)CC12CN(C(=O)[C@H]1CC1(C)C)C2)C(=O)N1CCCCC1` (stereo partly shown) [I-265], the IC50 lay in the range of 1000 to 10000 nM.
The result for `CNC(=O)[C@@H](NC(=O)[C@H]1CN(C(=O)c2sc(Cl)nc2C)CC12CN(C(=O)[C@H]1CC1(C)C)C2)[C@@H](C)OCC1CCCCC1` [I-208B] reads 100 to 1000 nM; that for `CNC(=O)[C@@H](NC(=O)[C@@H]1CN(C(=O)c2cnn(Cc3ccc(F)cc3)c2)CC12CN(C(=O)[C@H]1CC1(C)C)C2)[C@@H](C)OCC1CCC(F)(F)CC1` [I-170], ≤ 10 nM.
The value for `CNC(=O)[C@@H](NC(=O)[C@@H]1CN(C(=O)c2cncs2)CC12CN(C(=O)[C@H]1CC1(C)C)C2)C1(OCC2CCCCC2)CC1` [I-401] was 10 to 100 nM; that for `CNC(=O)[C@@H](NC(=O)[C@@H]1CN(C(=O)c2cnn(Cc3ccccc3)c2)CC12CN(C(=O)C1(C#N)CC1)C2)[C@@H](C)OCc1ccccc1` [I-73A] was 1000 to 10000 nM.
The value for `COc1cccc(CNC(=O)[C@@H]2CN(C(=O)c3cnn(Cc4ccccc4)c3)CC23CN(C(=O)[C@H]2CC2(C)C)C3)n1` [I-126A] was > 10000 nM; that for `CNC(=O)[C@@H](NC(=O)[C@@H]1CN(C(=O)c2cnn(Cc3ccccc3)c2)CC12CN(C(=O)[C@H]1CC1(C)C)C2)[C@@H](C)OCC(C)(C)C` [I-130A] was 10 to 100 nM; that for `CC1(C)C[C@@H]1C(=O)N1CC2(CN(C(=O)c3cnn(Cc4ccccc4)c3)C[C@H]2C(=O)N[C@@H]2CC[C@@H]2O)C1` [I-201B] was > 10000 nM.
Regarding `CNC(=O)[C@@H](NC(=O)[C@@H]1CN(C(=O)c2cnn(Cc3ccccc3)c2)CC12CN(C(=O)CC1(COC)CC1)C2)[C@@H](C)OCc1ccccc1` [I-82A], the IC50 is > 10000 nM.
The result for `C[C@@H](OCC12CCC(CC1)OC2)[C@H](NC(=O)[C@@H]1CN(C(=O)c2cnco2)CC12CN(C(=O)C(C)(C)C1CC1)C2)C(C)(C)O` [I-448] reads 1000 to 10000 nM; that for `CNC(=O)[C@@H](NC(=O)[C@@H]1CN(Cc2cn[nH]c2)CC12CN(C(=O)[C@H]1CC1(C)C)C2)[C@@H](C)OCc1ccccc1` [I-50A], > 10000 nM.
For `C[C@@H](OCC1CCCCC1)[C@H](NC(=O)[C@@H]1CN(C(=O)c2cnn(Cc3ccccc3)c2)CC12CN(C(=O)[C@H]1CC1(C)C)C2)C(=O)N1CCC[C@@H](N)C1` [I-218], the IC50 was ≤ 10 nM.
As for `CNC(=O)[C@@H](NC(=O)[C@@H]1CN(C(=O)Cc2cnn(C)c2)CC12CN(C(=O)[C@H]1CC1(C)C)C2)[C@@H](C)OCc1ccccc1` [I-384], the IC50 is > 10000 nM.
For `CO[C@H]1COCC[C@@H]1NC(=O)[C@H]1CN(C(=O)c2cnn(Cc3ccccc3)c2)CC12CN(C(=O)[C@H]1CC1(C)C)C2` [I-148B], the IC50 was > 10000 nM.
The value for `CC(C)(O)C(NC(=O)[C@@H]1CN(C(=O)c2cnco2)CC12CN(C(=O)[C@H]1CC1(C)C)C2)c1cccc(C2CCOCC2)n1` (stereo partly shown) [I-436] was > 10000 nM; that for `CNC(=O)[C@@H](NC(=O)[C@@H]1CN(C(=O)c2cnn(Cc3ccccc3)c2)CC12CN(CC(=O)O)C2)[C@@H](C)OCC1CCCCC1` [I-294, 2-((S)-6-(1-benzyl-1H-pyrazole-4-carbonyl)-8-(((2S,3R)-3-(cyclohexylmethoxy)-1-(methylamino)-1-oxobutan-2-yl)carbamoyl)-2,6-diazaspiro[3.4]octan-2-yl)acetic acid] was > 10000 nM.
`CC1(C)C[C@@H]1C(=O)N1CC2(CN(C(=O)c3cnn(Cc4ccccc4)c3)C[C@H]2C(=O)N2CCC[C@H](OCC3CCCCC3)C2)C1` [I-236]: the IC50 is 1000 to 10000 nM.
The value for `C[C@@H](OCC1CCCCC1)[C@H](NC(=O)[C@@H]1CN(C(=O)c2ccn[nH]2)CC12CN(C(=O)[C@H]1CC1(C)C)C2)C(=O)N1CCCCC1` [I-216] was 100 to 1000 nM; that for `Cc1noc([C@H](C)NC(=O)[C@H]2CN(C(=O)c3cnn(Cc4ccccc4)c3)CC23CN(C(=O)[C@H]2CC2(C)C)C3)n1` [I-158B] was > 10000 nM; that for `C[C@@H](OCC1CCCCC1)[C@H](NC(=O)[C@@H]1CN(C(=O)c2cnn(Cc3ccccc3)c2)CC12CN(C(=O)[C@H]1CC1(C)C)C2)C(=O)N1CCC[C@H](C(=O)O)C1` [I-483] was ≤ 10 nM.
The value for `CNC(=O)[C@@H](NC(=O)[C@@H]1CN(C(=O)c2cnn(Cc3ccccc3)c2)CC12CN(C(=O)C1(CCOC)CC1)C2)[C@@H](C)OCc1ccccc1` [I-102A] was > 10000 nM; that for `CNC(=O)[C@@H](NC(=O)[C@H]1CN(C(=O)c2cnn(Cc3ccc(F)cc3)c2)CC12CN(C(=O)[C@H]1CC1(C)C)C2)[C@@H](C)OCc1ccc(F)cc1` [I-136B] was 100 to 1000 nM.
